Test results from patent publication US8841311B2, “Sulphone-substituted quinazoline derivatives as immuno-modulators, their preparation and use as medicaments” (Bayer Intellectual Property GmbH, priority 2008, dated 2014).
pIC50: −log10 of the molar value.

Test system: TLR-induced TNF-α release in human peripheral blood mononuclear cells (PBMC)
Experiment: TLR-induced cytokine release in human PBMC (TNF-alpha, ELISA)
Format: cell-based
Conditions: human PBMC stimulated with TLR ligand, 18 hours incubation
Description: TLR-Induced Cytokine Release in Human “Peripheral Blood Mononuclear Cells” (PBMC)
PBMCs isolated from human whole blood are stimulated using a TLR ligand.
The cytokine determination is carried out by means of ELISA kits; a proliferation/cell metabolism determination is carried out using Alamar Blue.
For the cell preparation, about 200 ml of blood are treated with an anticoagulant (e.g. citrate Monovettes). Per Leucosep tube, 15 ml of Histopaque (room temperature, RT) are poured in and pressed downwards through the frit employed by brief initial centrifugation (one minute at 1000×g, RT). 20 ml of blood are added to the tubes prepared in this way and centrifuged at 800×g for 15 minutes (RT). After centrifugation, the following layered arrangement results from the top to the bottom: plasma—PBMC Histopaque—filter disc—Histopaque—erythrocytes and granulocytes. The supernatant plasma is aspirated. The PBMC are transferred together with the underlying Histopaque to a new 50 ml tube, the contents of two Leucosep tubes always being added to one 50 ml tube. The 50 ml tubes are then filled to 50 ml with PBS. This cell suspension is centrifuged at 300×g (RT) for 10 minutes. The liquid supernatant is tipped off and the cell pellet is resuspended with a little PBS and subsequently filled to 50 ml with PBS. […] The metabolic activity of the treated cells is determined with the aid of Alamar Blue.

COc1cc2c(NC(C)C)ncnc2cc1OCc1cccc(S(C)(=O)=O)c1 [Example 2.1, Isopropyl[7-(3-methanesulphonylbenzyloxy)-6-methoxyquinazolin-4-yl]amine]
pIC50: 5.52
